# Assay results from paper PMC5949604.
# Assay: aziridine aldehyde dimer (S-serine-type dimer 3, parent) + tBuNC multicomponent (disrupted Ugi) head-to-tail macrocyclisation of N-terminal Pro peptides; linker inserts CH-CH-N between Pro N and C-terminal C=O (forms Pro N-C bond and C-terminal acyl aziridine N-C(=O) bond)
# Conditions: the molecule shown is the open-chain precursor, TFE, 100.0 mM
structure (smiles),measurement,setting,value
CC(C)C[C@H](NC(=O)CNC(=O)[C@@H]1CCCN1)C(=O)N[C@@H](CCCCNC(=O)OC(C)(C)C)C(=O)O [H-Pro-Gly-Leu-Lys(Boc)-OH],"ring closure, isolated yield","15-membered ring, 6.0 h",0%
CC(C)C[C@@H](NC(=O)CNC(=O)[C@@H]1CCCN1)C(=O)NCC(=O)N[C@H](CCCCNC(=O)OC(C)(C)C)C(=O)O [H-Pro-Gly-D-Leu-Gly-D-Lys(Boc)-OH],"ring closure, isolated yield","18-membered ring, 6.0 h",0%
CC(C)C[C@H](NC(=O)[C@H](COC(C)(C)C)NC(=O)[C@@H]1CCCN1)C(=O)NCC(=O)N[C@@H](Cc1ccccc1)C(=O)O [H-Pro-Ser(tBu)-Leu-Gly-Phe-OH],"ring closure, isolated yield","18-membered ring, 4.0 h",49%
CC(C)C[C@H](NC(=O)CNC(=O)[C@@H]1CCCN1)C(=O)NCC(=O)N[C@@H](CCCCNC(=O)OC(C)(C)C)C(=O)O [H-Pro-Gly-Leu-Gly-Lys(Boc)-OH],"ring closure, isolated yield","18-membered ring, 6.0 h",23%
CC(C)C[C@H](NC(=O)[C@H](C)NC(=O)[C@@H]1CCCN1)C(=O)NCC(=O)N[C@@H](Cc1ccccc1)C(=O)O [H-Pro-Ala-Leu-Gly-Phe-OH],"ring closure, isolated yield","18-membered ring, 4.0 h",12%
CC(C)C[C@H](NC(=O)CN(C)C(=O)[C@@H]1CCCN1)C(=O)NCC(=O)N[C@@H](Cc1ccccc1)C(=O)O [H-Pro-Sar-Leu-Gly-Phe-OH],"ring closure, isolated yield",18-membered ring,0%
CC(C)C[C@H](NC(=O)[C@H](COC(C)(C)C)NC(=O)[C@@H]1CCCN1)C(=O)N[C@@H](Cc1ccc(OC(C)(C)C)cc1)C(=O)N[C@@H](Cc1ccccc1)C(=O)O [H-Pro-Ser(tBu)-Leu-Tyr(tBu)-Phe-OH],"ring closure, isolated yield","18-membered ring, 4.0 h",22%
CC(C)C[C@H](NC(=O)CNC(=O)[C@@H]1CCCN1)C(=O)NCC(=O)N[C@H](Cc1ccccc1)C(=O)O [H-Pro-Gly-Leu-Gly-D-Phe-OH],"ring closure, isolated yield","18-membered ring, 4.0 h",0%
CC(C)C[C@H](NC(=O)CNC(=O)[C@]1(C)CCCN1)C(=O)NCC(=O)N[C@H](Cc1ccccc1)C(=O)O [H-L-alpha-MePro-Gly-Leu-Gly-D-Phe-OH],"ring closure, isolated yield",18-membered ring,0%
CC(C)C[C@@H](NC(=O)CNC(=O)[C@@H]1CCCN1)C(=O)NCC(=O)N[C@@H](Cc1ccccc1)C(=O)O [H-Pro-Gly-D-Leu-Gly-Phe-OH],"ring closure, isolated yield","18-membered ring, 4.0 h",28%
CC(C)C[C@H](NC(=O)CNC(=O)C[C@@H]1CCCN1)C(=O)NCC(=O)N[C@H](Cc1ccccc1)C(=O)O [H-L-beta-homoPro-Gly-Leu-Gly-D-Phe-OH],"ring closure, isolated yield",19-membered ring,0%
CC(C)C[C@H](NC(=O)[C@H](CC(C)C)N(C)C(=O)[C@@H]1CCCN1)C(=O)NCC(=O)N[C@@H](Cc1ccccc1)C(=O)O [H-Pro-N-Me-Leu-Leu-Gly-Phe-OH],"ring closure, isolated yield",18-membered ring,0%
CC(C)C[C@H](NC(=O)[C@H](COC(C)(C)C)NC(=O)C[C@@H]1CCCN1)C(=O)N[C@@H](Cc1ccc(OC(C)(C)C)cc1)C(=O)N[C@@H](Cc1ccccc1)C(=O)O [H-L-beta-homoPro-Ser(tBu)-Leu-Tyr(tBu)-Phe-OH],"ring closure, isolated yield",19-membered ring,0%
CC(C)C[C@H](NC(=O)CNC(=O)[C@@H]1CCCN1)C(=O)N[C@@H](C)C(=O)N[C@@H](Cc1ccccc1)C(=O)O [H-Pro-Gly-Leu-Ala-Phe-OH],"ring closure, isolated yield","18-membered ring, 6.0 h",9%
CC(C)C[C@H](NC(=O)CNC(=O)[C@@H]1CCCN1)C(=O)NCC(=O)N[C@@H](Cc1ccccc1)C(=O)O [H-Pro-Gly-Leu-Gly-Phe-OH],"ring closure, isolated yield","18-membered ring, 4.0 h",34%
O=C(CNC(=O)[C@@H]1CCCN1)N[C@@H](Cc1ccccc1)C(=O)O [H-Pro-Gly-Phe-OH],"ring closure, isolated yield","12-membered ring, 4.0 h",0%
